PMC9486168, “Protein-protein interaction-based high throughput screening for adenylyl cyclase 1 inhibitors: Design, implementation, and discovery of a novel chemotype” (Frontiers in Pharmacology, 2022)
Counter-ions that a name gives are not always drawn. Like-named read-outs stand apart in the source and are kept apart here.

Tests used:
AC1-C1b/CaM = molecular target: T1, AC1-C1b/CaM (Homo sapiens, UniProt P0DP23); assay: AC1-C1b/CaM fluorescence polarization (FP) assay; format: binding; details: for IC50: 100 nM AC1-C1b, 100 nM GST-CaM, 95% CI in brackets; for Ki: Cheng-Prusoff from FP IC50 and Kd; for AC1-CaM FP % inhib: relative to 100 μM CDZ (100% inhibition), highest concentration tested
T1 construct: made in house; host or cells: E. coli BL21-CodonPlus (DE3)-RIPL

AC1/CaM PPI = molecular target: T2, AC1/CaM PPI (Homo sapiens, UniProt P0DP23); assay: AC1/CaM NanoBiT assay in HEK293T cells; format: cell-based; details: HEK293T, thapsigargin-stimulated, AUC; read-out: Nanobit: AC1-CaM IC50 (μM ± SEM)
T2 construct: human AC1 (hAC1) residues 1–1,118 were cloned; The hCaM residues 1–149, residues 1–1,248 of rat AC8 (rAC8); expressed in transfected cells; host or cells: HEK293T, transient transfection

AC8-Nt/CaM = molecular target: T3, AC8-Nt/CaM (Homo sapiens, UniProt P0DP23); assay: AC8-Nt/CaM FP counterscreen assay; format: binding; details: for Ki / Ki (μM) AC8 NT: Cheng-Prusoff from FP IC50 and Kd, n/i given where none; for Ki ratio (AC8 NT/AC1): ratio >1: more potent in AC1/CaM FP;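 for all read-outs here: fluorescence polarization of AC peptide binding GST-CaM in HEPES buffer with CaCl2, compound preincubated with CaM 30 min, peptide read after 2 h at room temperature in dark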
T3 construct: made in house; host or cells: E. coli BL21-CodonPlus (DE3)-RIPL

AC8-C2b/CaM = molecular target: T4, AC8-C2b/CaM (Homo sapiens, UniProt P0DP23); assay: AC8-C2b/CaM FP counterscreen assay; format: binding; details: for Ki / Ki (μM) AC8 C2b: Cheng-Prusoff from FP IC50 and Kd, n/i given where none; for Ki ratio (AC8-C2b/AC1): ratio >1: more potent in AC1/CaM FP;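 for all read-outs here: fluorescence polarization of AC peptide binding to GST-CaM in HEPES buffer with KCl and 50 µM CaCl2, compound preincubated 30 min with GST-CaM, DMSO and calmidazolium as controls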
T4 construct: made in house; host or cells: E. coli BL21-CodonPlus (DE3)-RIPL

[1] = CellTiter-Glo 2.0 cell viability assay; format: cell-based; details: human, HEK293T cells, pH 7.4; for viability at 30 min: at the compound's AC1/CaM NanoBiT IC50 concentration, read-out: % Viable Cells at AC1 IC50;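 for all read-outs here: luminescence read-out after 30 min compound exposure at 37 °C in HEPES-buffered HBSS, scaled to vehicle-treated cells as 100% and cell-free buffer wells as 0%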
HEK293T cells = assay: CellTiter-Glo 2.0 cell viability assay; format: cell-based; details: for decrease in cell viability at AC1/CaM IC50: at AC1/CaM NanoBiT IC50;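 for all read-outs here: luminescence read-out after 30 min compound exposure at 37 °C in HEPES-buffered HBSS, scaled to vehicle-treated cells as 100% and cell-free buffer wells as 0%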
AC8/CaM PPI = molecular target: T5, AC8/CaM PPI (Homo sapiens, UniProt P0DP23); assay: AC8/CaM NanoBiT assay in HEK293T cells; format: cell-based, rat; details: for IC50: HEK293T, thapsigargin-stimulated, AUC, read-out: Nanobit: AC8-CaM IC50 (μM ± SEM); for fold selective for AC8 over AC1 in the NanoBiT assay: AC8/CaM vs AC1/CaM NanoBiT
T5 construct: confirmed as an AC1/AC8 non-selective hit against full-length AC1- and AC8-CaM in the NanoBiT assay; The hCaM residues 1–149, residues 1–1,248 of rat AC8 (rAC8); expressed in transfected cells; host or cells: HEK293T, transient transfection

CaM = molecular target: T6, CaM (Homo sapiens, UniProt P0DP23); assay: 1H-15N HSQC NMR of 15N-CaM with compound; format: binding; details: 5 equivalent molar excess over 100 μM CaM
T6 construct: 6X-His-GST (N, cleaved yes); made in house; host or cells: E. coli BL21-CodonPlus (DE3)-RIPL in M9 minimal media with 15NH4Cl
Method: All NMR samples contained 100 μM ^15N-CaM in 20 mM HEPES pH 7.4, 100 mM KCl, 10 mM CaCl2, 10% D2O, and 5% DMSO. Initial spectra were collected for CaM alone before individual compounds were titrated to observe chemical shift perturbations. All spectra were acquired at 298 K using a 600 MHz Bruker Avance NEO NMR spectrometer with a triple resonance gradient cryoprobe. NMR spectra were processed using NMRPipe and analyzed using NMRFAM-SPARKY.

AC1 = molecular target: T7, AC1 (Homo sapiens, UniProt Q08828); assay: cAMP accumulation assay, AC1-HEK Δ3/6 KO cells; format: cell-based; details: for inhibition of AC1 activity (efficacy): initial characterization of hits, data not shown; for inhibition of AC1 activity: CDI analog set, maximal inhibition of A23187 response
T7 construct: expressed in transfected cells
T7 sequence (Q08828 whole entry): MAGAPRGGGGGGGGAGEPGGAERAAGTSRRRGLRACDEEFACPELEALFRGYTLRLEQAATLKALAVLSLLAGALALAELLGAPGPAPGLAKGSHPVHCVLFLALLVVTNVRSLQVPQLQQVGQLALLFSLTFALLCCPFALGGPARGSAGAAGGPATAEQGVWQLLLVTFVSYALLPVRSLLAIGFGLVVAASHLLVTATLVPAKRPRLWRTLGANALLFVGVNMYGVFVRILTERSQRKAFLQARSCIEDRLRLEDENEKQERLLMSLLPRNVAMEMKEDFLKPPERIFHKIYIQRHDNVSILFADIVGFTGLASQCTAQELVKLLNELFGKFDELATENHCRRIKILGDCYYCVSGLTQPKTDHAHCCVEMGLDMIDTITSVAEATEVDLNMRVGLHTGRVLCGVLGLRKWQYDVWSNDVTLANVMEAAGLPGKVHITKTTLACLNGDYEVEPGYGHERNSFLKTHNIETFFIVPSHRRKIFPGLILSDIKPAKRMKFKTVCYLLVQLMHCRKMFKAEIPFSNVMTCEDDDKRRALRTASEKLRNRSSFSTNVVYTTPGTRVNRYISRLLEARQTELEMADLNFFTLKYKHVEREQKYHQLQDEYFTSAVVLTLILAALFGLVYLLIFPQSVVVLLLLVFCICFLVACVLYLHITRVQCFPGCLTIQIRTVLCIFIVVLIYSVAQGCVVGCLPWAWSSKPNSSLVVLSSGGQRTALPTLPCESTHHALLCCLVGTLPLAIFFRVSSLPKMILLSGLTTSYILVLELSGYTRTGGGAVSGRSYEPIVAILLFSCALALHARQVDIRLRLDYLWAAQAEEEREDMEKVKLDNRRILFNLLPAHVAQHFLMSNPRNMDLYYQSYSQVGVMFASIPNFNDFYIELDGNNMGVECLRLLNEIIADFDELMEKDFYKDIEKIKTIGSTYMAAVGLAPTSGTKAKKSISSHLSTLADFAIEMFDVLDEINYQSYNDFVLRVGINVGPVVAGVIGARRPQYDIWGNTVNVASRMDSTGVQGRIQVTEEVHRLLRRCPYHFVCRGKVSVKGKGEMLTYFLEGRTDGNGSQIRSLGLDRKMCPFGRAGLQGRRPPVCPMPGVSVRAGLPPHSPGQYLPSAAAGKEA
Method: Cells were then incubated for 1 h at 37°C and 5% CO2. Cells were then treated with varying concentrations of inhibitors for 30 min, followed by treatment with calcium ionophore A23187 (3 μM) in 500 μM 3-isobutyl-1-methylxanthine (IBMX), a phosphodiesterase inhibitor, for 1 h at RT (Sigma Aldrich, St. Louis, MO). Finally, Cisbio HTRF detection reagents were added and incubated for 1–24 h at RT. Plates were read according to manufacturer’s protocol on an HTRF-compatible plate reader at 620 and 665 nm cAMP concentrations were interpolated from a cAMP standard curve. […] For cytotoxicity assays, compounds were tested at 30 μM and this protocol was used with the exception of detection reagents; CellTiter-Glo 2.0 reagent was used according to manufacturer’s protocol and luminescence was read on the Synergy Neo2 plate reader. Data are normalized to cells treated with vehicle (100%) or 2% tween (0%) and are represented as the percent of vehicle, from the average of three independent experiments (N = 3).

AC2 = molecular target: T8, AC2 (Homo sapiens, UniProt Q08462); assay: cAMP accumulation assay, AC2-HEK Δ3/6 KO cells; format: cell-based; details: for % Inhibited at AC2 ± SEM: 30 μM; for inhibition at 30 µM: read-out: % Inhibited at AC2 ± SEM
T8 construct: expressed in transfected cells
T8 sequence (Q08462 whole entry): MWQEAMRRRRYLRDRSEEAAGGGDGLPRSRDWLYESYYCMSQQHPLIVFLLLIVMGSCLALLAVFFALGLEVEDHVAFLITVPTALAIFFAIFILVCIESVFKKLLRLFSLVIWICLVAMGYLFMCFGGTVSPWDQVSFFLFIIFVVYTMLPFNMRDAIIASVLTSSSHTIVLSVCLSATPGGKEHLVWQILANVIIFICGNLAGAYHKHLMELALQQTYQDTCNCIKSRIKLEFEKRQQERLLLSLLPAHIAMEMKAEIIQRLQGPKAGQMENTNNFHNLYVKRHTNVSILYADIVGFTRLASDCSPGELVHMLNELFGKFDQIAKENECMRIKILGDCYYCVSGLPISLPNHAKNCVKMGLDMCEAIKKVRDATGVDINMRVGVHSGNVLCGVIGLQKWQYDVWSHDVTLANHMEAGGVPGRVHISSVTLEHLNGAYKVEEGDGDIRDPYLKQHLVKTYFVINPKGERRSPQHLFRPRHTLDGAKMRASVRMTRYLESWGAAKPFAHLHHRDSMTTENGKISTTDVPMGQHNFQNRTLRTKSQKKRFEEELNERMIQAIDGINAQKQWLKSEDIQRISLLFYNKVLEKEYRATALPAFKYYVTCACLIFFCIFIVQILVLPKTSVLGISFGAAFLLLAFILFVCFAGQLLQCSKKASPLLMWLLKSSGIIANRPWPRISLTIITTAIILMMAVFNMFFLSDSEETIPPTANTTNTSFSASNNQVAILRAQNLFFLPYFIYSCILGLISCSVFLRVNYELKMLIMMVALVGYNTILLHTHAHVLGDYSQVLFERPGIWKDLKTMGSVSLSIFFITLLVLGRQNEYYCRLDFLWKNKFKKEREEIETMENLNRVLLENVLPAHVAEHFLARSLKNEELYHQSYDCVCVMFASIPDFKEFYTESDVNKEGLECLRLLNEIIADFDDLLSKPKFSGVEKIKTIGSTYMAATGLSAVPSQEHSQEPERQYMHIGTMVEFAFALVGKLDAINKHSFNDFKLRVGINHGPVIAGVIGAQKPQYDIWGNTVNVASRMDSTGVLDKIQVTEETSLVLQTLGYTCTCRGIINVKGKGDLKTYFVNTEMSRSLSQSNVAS
Method: (§1) Cryopreserved HEK293 cells with AC3 and AC6 knocked out, and stably expressing AC1, AC2, AC5, or AC8 (AC1-HEK Δ3/6 KO, AC2-HEK Δ3/6 KO, AC5-HEK Δ3/6 KO, or AC8-HEK Δ3/6 KO cells, respectively; [Soto-Velasquez et al., 2018]) were plated at 5,000 cells/well. Cells were then incubated for 1 h at 37°C and 5% CO2. Cells were then treated with varying concentrations of inhibitors for 30 min, followed by treatment with calcium ionophore A23187 (3 μM) in 500 μM 3-isobutyl-1-methylxanthine (IBMX), a phosphodiesterase inhibitor, for 1 h at RT (Sigma Aldrich, St. Louis, MO). Finally, Cisbio HTRF detection reagents were added and incubated for 1–24 h at RT. Plates were read according to manufacturer’s protocol on an HTRF-compatible plate reader at 620 and 665 nm cAMP concentrations were interpolated from a cAMP standard curve. […] For cytotoxicity assays, compounds were tested at 30 μM and this protocol was used with the exception of detection reagents; CellTiter-Glo 2.0 reagent was used according to manufacturer’s protocol and luminescence was read on the Synergy Neo2 plate reader. Data are normalized to cells treated with vehicle (100%) or 2% tween (0%) and are represented as the percent of vehicle, from the average of three independent experiments (N = 3).

AC8 = molecular target: T9, AC8 (Homo sapiens, UniProt P40145); assay: cAMP accumulation assay, AC8-HEK Δ3/6 KO cells; format: cell-based; details: CDI analog SAR set, 3 μM A23187; read-out: IC50 (μM) ± SEM AC8
T9 construct: expressed in transfected cells
T9 sequence (P40145 whole entry, species assumed): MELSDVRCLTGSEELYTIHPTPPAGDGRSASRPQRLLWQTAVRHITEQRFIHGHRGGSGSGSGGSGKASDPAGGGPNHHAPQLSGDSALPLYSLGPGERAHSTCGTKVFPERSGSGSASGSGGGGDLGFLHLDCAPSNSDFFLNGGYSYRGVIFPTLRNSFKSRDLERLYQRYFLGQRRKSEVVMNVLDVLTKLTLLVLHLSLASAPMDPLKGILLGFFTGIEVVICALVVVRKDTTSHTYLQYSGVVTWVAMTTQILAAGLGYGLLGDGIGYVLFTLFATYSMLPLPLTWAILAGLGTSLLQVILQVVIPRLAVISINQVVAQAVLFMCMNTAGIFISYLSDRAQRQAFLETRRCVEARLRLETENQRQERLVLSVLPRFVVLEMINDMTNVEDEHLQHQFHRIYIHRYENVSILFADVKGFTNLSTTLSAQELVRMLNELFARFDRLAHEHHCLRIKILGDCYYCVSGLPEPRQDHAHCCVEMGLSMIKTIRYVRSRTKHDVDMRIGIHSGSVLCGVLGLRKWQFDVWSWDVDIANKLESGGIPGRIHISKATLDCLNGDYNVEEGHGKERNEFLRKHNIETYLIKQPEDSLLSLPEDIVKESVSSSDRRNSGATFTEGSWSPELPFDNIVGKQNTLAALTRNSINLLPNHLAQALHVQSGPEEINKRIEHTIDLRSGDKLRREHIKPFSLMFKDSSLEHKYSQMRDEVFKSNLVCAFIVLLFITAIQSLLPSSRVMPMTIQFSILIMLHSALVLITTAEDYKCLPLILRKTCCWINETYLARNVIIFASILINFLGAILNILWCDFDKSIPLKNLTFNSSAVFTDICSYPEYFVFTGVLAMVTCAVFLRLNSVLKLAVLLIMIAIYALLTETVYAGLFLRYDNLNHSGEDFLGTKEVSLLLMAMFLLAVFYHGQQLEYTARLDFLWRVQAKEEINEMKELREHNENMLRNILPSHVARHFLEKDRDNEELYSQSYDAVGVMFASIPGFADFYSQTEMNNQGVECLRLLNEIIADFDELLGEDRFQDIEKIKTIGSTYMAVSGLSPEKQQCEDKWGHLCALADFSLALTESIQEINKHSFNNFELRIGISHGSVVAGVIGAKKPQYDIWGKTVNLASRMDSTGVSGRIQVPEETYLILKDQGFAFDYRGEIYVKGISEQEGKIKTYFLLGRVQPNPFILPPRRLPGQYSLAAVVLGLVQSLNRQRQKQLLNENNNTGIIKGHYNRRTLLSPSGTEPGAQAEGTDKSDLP
Method: as §1

[2] = Cytotoxicity assay (CellTiter-Glo 2.0) in AC1-HEK Δ3/6 KO cells; format: cell-based; details: human, percent of vehicle, read-out: % Viable Cells at AC1 30 μM
Method: as §1

AC5 = molecular target: T10, AC5 (Homo sapiens, UniProt O95622); assay: cAMP accumulation assay, AC5-HEK Δ3/6 KO cells; format: cell-based; details: for inhibition at 30 µM: read-out: % Inhibited at AC5 ± SEM
T10 construct: expressed in transfected cells
T10 sequence (O95622 whole entry, species assumed): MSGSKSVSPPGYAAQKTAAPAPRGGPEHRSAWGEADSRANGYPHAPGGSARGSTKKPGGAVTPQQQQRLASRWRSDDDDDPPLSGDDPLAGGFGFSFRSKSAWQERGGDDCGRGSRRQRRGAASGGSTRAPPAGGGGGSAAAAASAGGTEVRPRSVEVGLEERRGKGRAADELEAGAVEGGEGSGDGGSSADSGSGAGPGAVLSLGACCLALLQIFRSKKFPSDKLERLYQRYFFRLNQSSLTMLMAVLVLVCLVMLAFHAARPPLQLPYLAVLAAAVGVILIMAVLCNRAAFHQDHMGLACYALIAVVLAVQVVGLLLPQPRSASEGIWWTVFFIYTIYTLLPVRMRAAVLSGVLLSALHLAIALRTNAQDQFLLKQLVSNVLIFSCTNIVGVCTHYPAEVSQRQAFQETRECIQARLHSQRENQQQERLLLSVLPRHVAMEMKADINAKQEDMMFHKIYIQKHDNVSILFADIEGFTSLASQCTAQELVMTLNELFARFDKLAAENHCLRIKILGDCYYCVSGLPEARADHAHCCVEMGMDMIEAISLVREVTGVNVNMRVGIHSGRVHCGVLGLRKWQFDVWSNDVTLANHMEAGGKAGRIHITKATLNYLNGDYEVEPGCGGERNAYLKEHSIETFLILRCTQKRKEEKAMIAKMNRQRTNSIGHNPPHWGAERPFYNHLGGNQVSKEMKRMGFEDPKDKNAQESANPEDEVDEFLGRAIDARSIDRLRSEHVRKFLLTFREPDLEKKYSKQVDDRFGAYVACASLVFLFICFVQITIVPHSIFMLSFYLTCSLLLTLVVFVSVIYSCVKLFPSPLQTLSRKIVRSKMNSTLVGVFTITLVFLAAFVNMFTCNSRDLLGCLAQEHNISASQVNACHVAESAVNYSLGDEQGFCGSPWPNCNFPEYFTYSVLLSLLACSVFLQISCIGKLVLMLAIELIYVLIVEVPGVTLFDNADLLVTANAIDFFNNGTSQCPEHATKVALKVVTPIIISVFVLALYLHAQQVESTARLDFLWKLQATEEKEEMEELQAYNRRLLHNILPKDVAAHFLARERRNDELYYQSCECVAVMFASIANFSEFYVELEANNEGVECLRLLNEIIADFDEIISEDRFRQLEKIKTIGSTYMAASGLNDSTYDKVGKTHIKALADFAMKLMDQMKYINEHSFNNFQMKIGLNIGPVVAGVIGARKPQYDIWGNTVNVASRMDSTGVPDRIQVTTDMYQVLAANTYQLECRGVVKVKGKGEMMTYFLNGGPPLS
Method: as §1

[3] = initial examination, 10,000 cells per well, 3 μM A23187, 1 h RT, read-out: AC1 IC50 ± SEM
[4] = CDI analog SAR set, 3 μM A23187, read-out: IC50 (μM) ± SEM AC1

Row | Structure (SMILES) | IC50 (AC1-C1b/CaM) [µM] | Ki (AC1-C1b/CaM) [µM] | AC1-CaM FP % inhib (AC1-C1b/CaM) [%] | IC50 (AC1/CaM PPI) [µM] | Ki ratio (AC8 NT/AC1) (AC8-Nt/CaM) | Ki ratio (AC8-C2b/AC1) (AC8-C2b/CaM) | viability at 30 min [1] [%] | IC50 (AC8/CaM PPI) [µM] | chemical shift perturbations (CSP) of 15N-CaM (CaM) | IC50 (AC1; [3]) [µM] | Ki (μM) AC8 NT (AC8-Nt/CaM) | Ki (μM) AC8 C2b (AC8-C2b/CaM) | inhibition at 30 µM (AC2) [%] | IC50 (AC1; [4]) [µM] | inhibition of AC1 activity (AC1) [%] | IC50 (AC8) [µM] | viability at 30 min, 30 μM [2] [%] | also measured
1 | [H]/N=C(\N/C(=N/[H])NCCCCCCNC(=N)NC(=N)Nc1ccc(Cl)cc1)Nc1ccc(Cl)cc1 [Compound 9, Chlorhexidine HCl] | 22 | 5.2 | 15 | 111 ± 1.23 | 2.7 | 4.0 | 80 | 47.1 ± 1.35 |  |  |  |  |  |  |  |  |  | Ki (AC8-Nt/CaM): 13.8 µM; Ki (AC8-C2b/CaM): 20.8 µM; decrease in cell viability at AC1/CaM IC50 (HEK293T cells): greater than 10%
2 | O=C1c2c(O)ccc(O)c2C(=O)c2c(NCCNCCO)ccc(NCCNCCO)c21 [Compound 11, Mitoxantrone HCl] | 27.5 | 6.5 | 40 | 44 ± 1.15 | 6.3 | 1.3 | 87 | 29.8 ± 1.18 |  |  |  |  |  |  |  |  |  | Ki (AC8-Nt/CaM): 41.1 µM; Ki (AC8-C2b/CaM): 8.2 µM; decrease in cell viability at AC1/CaM IC50 (HEK293T cells): greater than 10%
3 | CC(=O)Oc1c(Sc2ccc(Cl)cc2)c(C)nn1C(C)(C)C [Compound 13] | 73.5 | 17.4 |  | 16.1 ± 1.13 | AC1 Selective | AC1 Selective | 96 | 13.1 ± 1.19 | largest CSPs | 31 ± 6.63 | n/i | n/i |  |  |  |  |  | cell viability reduced at highest concentration tested (HEK293T cells; 316 μM): ~50%; cell viability at ∼300 μM (HEK293T cells; ∼300 μM): decrease in cell viability
4 | O=S(=O)(Nc1ccc2c(c1)N(S(=O)(=O)c1ccc(F)cc1)CCC2)c1cccc(F)c1 [Compound 18] | 38.4 | 9.1 | 54 | 16.1 ± 1.12 | AC1 Selective | AC1 Selective | 100 | 5.71 ± 1.22 | modest chemical shift changes | 6.7 ± 0.7 | n/i | n/i |  |  |  |  |  | inhibition of AC1 activity (efficacy) (AC1): ~70%; viability at 30 min, 316 µM ([1]; 316 μM, read-out: cell viability at highest concentration tested): 90%; fold selective for AC8 over AC1 in the NanoBiT assay (AC8/CaM PPI): ~3 fold
5 | Cn1cc(C(=O)Nc2ccc(Cl)cc2Cl)c2[nH]c(=O)n(-c3ccc(Cl)cc3)c(=O)c21 [Compound 21] | 9.9 |  | 59 | 25.6 ± 1.42 | AC1 Selective | AC1 Selective | 100 | 6.8 ± 1.19 | modest chemical shift changes | 8.77 ± 4.47 | n/i | n/i |  |  |  |  |  | inhibition of AC1 activity (efficacy) (AC1): ~50%; fold selective for AC8 over AC1 in the NanoBiT assay (AC8/CaM PPI): 2- to 4 fold
6 | CCc1cc(C(c2cccs2)N2CCC(C)CC2)c(NC(=O)c2ccco2)s1 (centres unmarked) [Compound 24] |  |  |  |  |  |  |  |  |  |  |  |  | < 16 | 2.75 ± 0.82 | 100 | 2.7 ± 0.24 | 77 | % Inhibited at AC2 ± SEM (AC2): 15 ± 11%; % Inhibited at AC5 ± SEM (AC5; 30 μM): 16 ± 11%; inhibition at 30 µM (AC5): < 16%
7 | Cc1cc(C(c2cccs2)N2CCN(C)CC2)c(NC(=O)c2ccco2)s1 (centres unmarked) [Compound 25] |  |  |  |  |  |  |  |  |  |  |  |  | 52 ± 11 | 6.39 ± 0.89 | 100 | 8.85 ± 2.7 | 94 | inhibition at 30 µM (AC5): 46 ± 5%
8 | O=C(Nc1sc2c(c1C(c1cccs1)N1CCOCC1)CCCC2)c1ccco1 (centres unmarked) [Compound 32] |  |  |  |  |  |  |  |  |  |  |  |  | < 16 | 0.89 ± 0.04 | 100 | 1.86 ± 0.32 | 100 | % Inhibited at AC2 ± SEM (AC2): 10 ± 8%
